From patent US20240067632A1, “WEE1 Degrading Compounds and Uses Thereof” (Bristol-Myers Squibb Company, priority 2022, published 2024)
Like-named read-outs stand apart in the source and are kept apart here.

Tests used:
MKN45 cells = test: MKN45 cell proliferation assay (Cell-Titer-Glo, 120 h); format: cell-based; details: for EC50: Homo sapiens, MKN-45, 120 h, Cell-Titer-Glo, read-out: MKN45 Cell Prolif. 120 hr (EC50); for MKN45 Cell Prolif. 120 hr (Ymin-Obs): minimal percent of DMSO control observed in the concentrations tested
Protocol: MKN45 cells were obtained from Celgene internal cell banks and cultured in RPMI complete media (RPMI-1640, 1× Penicillin/Streptomycin, 1× glutamine, 1× Sodium Pyruvate, Non-essential Amino Acids, 10% Fetal Bovine serum, all component from Thermo-Fisher). Compounds were dispensed into 384-well plates using an HP DE300 compound printer in triplicate with 8 compounds on each plate. For each compound, a 10-point dose response was printed at half-log dilutions starting at either 1 uM or 10 uM. The DMSO concentration was kept constant for a final assay concentration of 0.1% per well assuming 50 ul final media volume. Compound plates were sealed and frozen at −20 C until use.
For each assay batch, compound plates were thawed and allowed to reach room temperature, and cells were seeded at 400 cells per well in 50 ul complete RPMI media. After 120 hours of incubation at 37 C and 5% CO2, cells were lysed by addition of 25 μL of Cell-Titer-Glo Reagent (Promega Corporation, Madison, WI), as per manufacturer's instructions, protected from light, shaken for 45 minutes, and total luminescence read by a Perkin Elmer Envision plate reader. Total luminescence signal is linearly correlated with cell number remaining in the well.
Luminescence data was processed per plate by subtracting reagent-only “blank” well luminescence from all measured values and calculating a percent of DMSO control value for each treatment well. Then, to determine the half-maximal effective concentration (EC50) values for cell growth inhibition, a four parameter logistic model was fit to the data for each DMSO-normalized compound: Sigmoidal Dose-Response Model: (FIT=(A+((B−A)/1+((C/x)^D)))) where C is the inflection point (EC50), D is the Hill slope, and A and B are the low and high limits of the fit respectively. The lower limit of the fit (value A) is referred to as Ymin-calculated. The minimal percent of DMSO control that is observed in the concentrations tested for each compound is labeled as “Ymin-obs”, and was recorded and reported in the tables. Sigmoidal fit curves were processed and evaluated using Activity Base (IDBS, Alameda, CA).

WEE1 = biological target: T1, WEE1 (Homo sapiens, UniProt P30291+Q96SW2); test: WEE1-ePL degradation assay (LentiX-WEE1-ePL-GSPT1-ND cells, InCELL Hunter luminescence, 4 h); format: cell-based; details: 293T-LentiX WEE1-ePL cells; for DC50: read-out: 293T-LentiX WEE1-ePL Degradation 4 hr (EC50)
T1 construct: C-terminal ePL-tagged (DiscoverX, Fremont, CA) full-length WEE1 expression construct; expressed in transfected cells; host or cells: LentiX-HEK293T (Invitrogen), lentiviral transduction; co-expressing GSPT1-GN (G576N, lacking the first 158 amino acids)
Outline: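 LentiX-HEK293T cells stably expressing C-terminally ePL-tagged full-length WEE1 were treated with compounds in a 10-point, 3-fold dilution series starting at 1 uM or 10 uM for 4 h at 37 °C. Remaining WEE1-ePL was detected by InCELL Hunter luminescence, and EC50, Ymin and Ymax came from a four-parameter logistic fit against DMSO control.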

[1] = lower limit of the fit (0 = luciferase inhibitor, Ymax = DMSO control)
[2] = lower limit of the fit (Ymin=0 luciferase inhibitor, Ymax DMSO control)

| SMILES | EC50 (MKN45 cells; growth inhibition) | MKN45 Cell Prolif. 120 hr (Ymin-Obs) (MKN45 cells) | 293T-LentiX WEE1-ePL Degradation 4 hr (Ymin) (WEE1; [1]) | DC50 (WEE1) | EC50 (MKN45 cells) | 293T-LentiX WEE1-ePL Degradation 4 hr (Ymin) (WEE1; [2]) |
| --- | --- | --- | --- | --- | --- | --- |
| Cc1nc2ccc(CN3CC[C@H](Oc4ccc5c(c4)CN(C4CCC(=O)NC4=O)C5=O)C3)cc2cc1F (stereo partly drawn) [3-(5-{[(3S)-1-[(3-fluoro-2-methylquinolin-6-yl)methyl]pyrrolidin-3-yl]oxy}-1-oxo-2,3-dihydro-1H-isoindol-2-yl)piperidine-2,6-dione] | 53.6 nM | 18.86 | 33.29 | 6.95 nM |  |  |
| O=C1CCC(N2Cc3cc(O[C@H]4CCN(Cc5cnc6c(c5)CCOC6)C4)ccc3C2=O)C(=O)N1 (stereo partly drawn) [3-(1-oxo-5-{[(3S)-1-({5H,6H,8H-pyrano[3,4-b]pyridin-3-yl}methyl)pyrrolidin-3-yl]oxy}-2,3-dihydro-1H-isoindol-2-yl)piperidine-2,6-dione] | 252 nM | 8.89 | 30 | 27.3 nM |  |  |
| O=C1CCC(N2Cc3cc(O[C@H]4CCN(Cc5cnc6c(c5)CCO6)C4)ccc3C2=O)C(=O)N1 (stereo partly drawn) [3-(5-{[(3S)-1-({2H,3H-furo[2,3-b]pyridin-5-yl}methyl)pyrrolidin-3-yl]oxy}-1-oxo-2,3-dihydro-1H-isoindol-2-yl)piperidine-2,6-dione] | 2040 nM | 40.58 | 42 | 60.1 nM |  |  |
| O=C1CCC(N2Cc3cc(O[C@H]4CCN(Cc5ccc6nc(N7CCCC7=O)ccc6c5)C4)ccc3C2=O)C(=O)N1 (stereo partly drawn) [3-(1-oxo-5-{[(3S)-1-{[2-(2-oxopyrrolidin-1-yl)quinolin-6-yl]methyl}pyrrolidin-3-yl]oxy}-2,3-dihydro-1H-isoindol-2-yl)piperidine-2,6-dione] | 7.19 nM | 10.36 | 31 | 1.83 nM |  |  |
| CO[C@@H]1CCC[C@@H](c2ccc3cc(CN4CC[C@H](Oc5ccc6c(c5)CN(C5CCC(=O)NC5=O)C6=O)C4)ccc3n2)C1 (stereo partly drawn) [3-(5-{[(3S)-1-({2-[(1R,3R)-3-methoxycyclohexyl]quinolin-6-yl}methyl)pyrrolidin-3-yl]oxy}-1-oxo-2,3-dihydro-1H-isoindol-2-yl)piperidine-2,6-dione] | 0.93 nM | 7.97 | 29 | 2.83 nM |  |  |
| Cc1ccc2cc(CN3C[C@H](C)[C@H](Oc4ccc5c(c4)CN(C4CCC(=O)NC4=O)C5=O)C3)ccc2n1 (stereo partly drawn) [3-(5-{[(3S,4S)-4-methyl-1-[(2-methylquinolin-6-yl)methyl]pyrrolidin-3-yl]oxy}-1-oxo-2,3-dihydro-1H-isoindol-2-yl)piperidine-2,6-dione] | > 10000 nM | 85.96 | 88.5 |  |  |  |
| O=C1CCC(N2Cc3cc(O[C@H]4CCN(Cc5ccc6nc([C@H]7CC[C@H](O)CC7)ccc6c5)C4)ccc3C2=O)C(=O)N1 (stereo partly drawn) [3-(1-oxo-5-{[(3S)-1-({2-[(1r,4r)-4-hydroxycyclohexyl]quinolin-6-yl}methyl)pyrrolidin-3-yl]oxy}-2,3-dihydro-1H-isoindol-2-yl)piperidine-2,6-dione] | 2.79 nM | 7.3325 | 30 | 4.67 nM |  |  |
| O=C1CCC(N2Cc3cc(O[C@H]4CCN(Cc5ccc6nc(OC7CCOCC7)ccc6c5)C4)ccc3C2=O)C(=O)N1 (stereo partly drawn) [3-(5-{[(3S)-1-{[2-(oxan-4-yloxy)quinolin-6-yl]methyl}pyrrolidin-3-yl]oxy}-1-oxo-2,3-dihydro-1H-isoindol-2-yl)piperidine-2,6-dione] | 9.83 nM | 13.54 | 33 | 4.52 nM |  |  |
| O=C1CCC(N2Cc3cc(O[C@H]4CCN(Cc5ccc6nc(N7CC8(CCOCC8)C7)ccc6c5)C4)ccc3C2=O)C(=O)N1 (stereo partly drawn) [3-(5-{[(3S)-1-[(2-{7-oxa-2-azaspiro[3.5]nonan-2-yl}quinolin-6-yl)methyl]pyrrolidin-3-yl]oxy}-1-oxo-2,3-dihydro-1H-isoindol-2-yl)piperidine-2,6-dione] | 2.84 nM | 10.13 | 36 | 1.94 nM |  |  |
| CN1CC(=O)Oc2cc(CN3CC[C@H](Oc4ccc5c(c4)CN(C4CCC(=O)NC4=O)C5=O)C3)ccc21 (stereo partly drawn) [3-(5-{[(3S)-1-[(4-methyl-2-oxo-3,4-dihydro-2H-1,4-benzoxazin-7-yl)methyl]pyrrolidin-3-yl]oxy}-1-oxo-2,3-dihydro-1H-isoindol-2-yl)piperidine-2,6-dione] | > 10000 nM | 91.915 | 52 | 24.2 nM |  |  |
| Cc1cncc(CN2CC[C@H](Oc3ccc4c(c3)CN(C3CCC(=O)NC3=O)C4=O)C2)c1C (stereo partly drawn) [3-(5-{[(3S)-1-[(4,5-dimethylpyridin-3-yl)methyl]pyrrolidin-3-yl]oxy}-1-oxo-2,3-dihydro-1H-isoindol-2-yl)piperidine-2,6-dione] | 407 nM | 62.92 | 37.63 | 40.7 nM |  |  |
| O=C1CCC(N2Cc3cc(O[C@H]4CCN(Cc5ccc6nc(N7CC[C@]78CCOC8)ccc6c5)C4)ccc3C2=O)C(=O)N1 (stereo partly drawn) [3-(5-{[(3S)-1-({2-[(4R)-6-oxa-1-azaspiro[3.4]octan-1-yl]quinolin-6-yl}methyl)pyrrolidin-3-yl]oxy}-1-oxo-2,3-dihydro-1H-isoindol-2-yl)piperidine-2,6-dione] | 5.4 nM | 7.715 | 42 | 5.38 nM |  |  |
| COC1(c2ccc3cc(CN4CC[C@H](Oc5ccc6c(c5)CN(C5CCC(=O)NC5=O)C6=O)C4)ccc3n2)CCC1 (stereo partly drawn) [3-(5-{[(3S)-1-{[2-(1-methoxycyclobutyl)quinolin-6-yl]methyl}pyrrolidin-3-yl]oxy}-1-oxo-2,3-dihydro-1H-isoindol-2-yl)piperidine-2,6-dione] | 3.32 nM | 7.4 | 31 | 2.69 nM |  |  |
| O=C1CCC(N2Cc3cc(O[C@H]4CCN(Cc5ccc6nc(N7CC[C@H](O)C7)ccc6c5)C4)ccc3C2=O)C(=O)N1 (stereo partly drawn) [3-(5-{[(3S)-1-({2-[(3S)-3-hydroxypyrrolidin-1-yl]quinolin-6-yl}methyl)pyrrolidin-3-yl]oxy}-1-oxo-2,3-dihydro-1H-isoindol-2-yl)piperidine-2,6-dione] | 11.4 nM | 7.1 | 36.5 | 10.4 nM |  |  |
| CO[C@@H]1CCCC[C@H]1c1ccc2cc(CN3CC[C@H](Oc4ccc5c(c4)CN(C4CCC(=O)NC4=O)C5=O)C3)ccc2n1 (stereo partly drawn) [3-(5-{[(3S)-1-({2-[(1S,2R)-2-methoxycyclohexyl]quinolin-6-yl}methyl)pyrrolidin-3-yl]oxy}-1-oxo-2,3-dihydro-1H-isoindol-2-yl)piperidine-2,6-dione] |  | 51.58 |  | 21.5 nM | 428 nM | 32.43 |
| CN1CC[C@H](c2ncc3cc(CN4CC[C@H](Oc5ccc6c(c5)CN(C5CCC(=O)NC5=O)C6=O)C4)ccc3n2)C1 (stereo partly drawn) [3-(5-{[(3S)-1-({2-[(3S)-1-methylpyrrolidin-3-yl]quinazolin-6-yl}methyl)pyrrolidin-3-yl]oxy}-1-oxo-2,3-dihydro-1H-isoindol-2-yl)piperidine-2,6-dione] |  | 17.35 |  | 248 nM | 84.1 nM | 36.52 |
| Cc1ccc2c(F)c(CN3CC[C@H](Oc4ccc5c(c4)CN(C4CCC(=O)NC4=O)C5=O)C3)ccc2n1 (stereo partly drawn) [3-(5-{[(3S)-1-[(5-fluoro-2-methylquinolin-6-yl)methyl]pyrrolidin-3-yl]oxy}-1-oxo-2,3-dihydro-1H-isoindol-2-yl)piperidine-2,6-dione] | 8.08 nM | 9.22 | 28.365 | 1.51 nM |  |  |
